{
  "source": "patent US5462927A",
  "about": "“Peptides aiding nerve regeneration” (The Administrators of the Tulane Educational Fund, priority 1992, dated 1995)",
  "key": {"[1]": {"tested_on": "sectioned sciatic nerve; common extensor muscle of the finger", "assay": "Characteristics of a single pulse of the common extensor muscle after sciatic nerve section", "type": "in vivo, rat", "conditions": "for Single Pulse: Contraction Time / Single Pulse: Half-Relaxation Time / Single Pulse: Latence / Single Pulse: Muscle Strength Normalized to Muscle Weight / Single Pulse: Speed of Contraction / Single Pulse: Speed of Relaxation / Single Pulse: Strength: 35d. p.o.p."}, "[2]": {"tested_on": "sciatic nerve after transection and end-to-end suture", "assay": "Morphometry after section and suture of sciatic nerve", "type": "in vivo, rabbit"}, "crushed sciatic nerve": {"tested_on": "crushed sciatic nerve", "assay": "Sensorimotor function test (sciatic nerve regeneration assay, foot-flick response to thermal pain)", "type": "in vivo, rat", "conditions": "s.c. every 24 hr for approximately 20-25 days; head prints only 'μG/24 HRS'; vs 0.9% NaCl control", "method": "Female, Sprague-Dawley rats (Charles River Breeding Labs) were used at an age of 7-8 weeks (120-140 g). Under ether anesthesia, the right sciatic nerve was carefully exposed and crushed with constant pressure, hemostatic forceps for 30 sec prior to closure and suturing of the incision. After surgery, the animals were randomly assigned to treatment groups of 10. The test peptides were administered s.c. in 0.9% NaCl in a vol of 0.1 ml. NaCl (0.9%) served as the control. Injections were started immediately after surgery and given every 24 hr thereafter for approximately 20-25 days. The criterion of sciatic nerve regeneration was based on the recovery of the foot-flick response to thermal pain. Beginning 48 hr after surgery, the rats were tested five days a week for the ability to withdraw, from a heat source, the paw innervated by the crushed nerve. All sensorimotor testing was performed between 1:00 and 3:00 p.m. Specifically, the rat was immobilized by wrapping in a towel, and the sole of the lesioned limb was placed over the aperture of a modified d'Amour apparatus. The time required to withdraw the foot was recorded to the nearest 0.1 of sec using a digital stopwatch. If no response occurred by 5 sec, the test was terminated to avoid tissue damage. The observe measuring the foot-flick response was blind to the treatment group being tested. All animals were acclimatized to the testing procedure prior to surgery. Baseline values were obtained by determining the response time for the unlesioned limb."}, "[3]": {"conditions": "Group 3 (topical in tissucol, lower dose)"}, "[4]": {"conditions": "Group 4 (s.c. 5ug.kg.day for 18 days)"}, "[5]": {"conditions": "1 cm distal to the transection, 32 days p.op., 1 μg/kg per day s.c."}, "[6]": {"conditions": "Region of the Transection, 32 days p.op., 1 μg/kg per day s.c."}, "[7]": {"conditions": "Region of the Transection, 96 days p.op., 1 μg/kg per day s.c."}},
  "note": "Square brackets hold non-standard residues; d marks the D form. Peptide text beside a SMILES is read from it.",
  "data": [
    {"smiles": "C[C@@H](N)C(=O)N[C@@H](CCC(N)=O)C(=O)N[C@@H](Cc1ccc(O)cc1)C(=O)N[C@@H](Cc1ccccc1)C(=O)N[C@@H](CCCNC(=N)N)C(=O)N[C@@H](Cc1c[nH]c2ccccc12)C(=O)NCC(N)=O", "note": "[BIM-22015, D--Ala--Gln--Tyr--Phe--Arg--Trp--Gly--NH2] (H-[dA]QYFRWG-NH2)", "values": [
      {"measurement": "Single Pulse: Contraction Time", "setting": "[1]; Group 2 (topical in tissucol)", "value": 28.86, "unit": "ms"},
      {"measurement": "Single Pulse: Half-Relaxation Time", "setting": "[1]; Group 2 (topical in tissucol)", "value": 64.69, "unit": "ms"},
      {"measurement": "Single Pulse: Latence", "setting": "[1]; Group 2 (topical in tissucol)", "value": 9.93, "unit": "ms"},
      {"measurement": "Single Pulse: Muscle Strength Normalized to Muscle Weight", "setting": "[1]; Group 2 (topical in tissucol)", "value": 0.30, "unit": "g/µg"},
      {"measurement": "Single Pulse: Speed of Contraction", "setting": "[1]; Group 2 (topical in tissucol)", "value": 2419, "unit": "g/ms"},
      {"measurement": "Single Pulse: Speed of Relaxation", "setting": "[1]; Group 2 (topical in tissucol)", "value": 514, "unit": "g/ms"},
      {"measurement": "Single Pulse: Strength", "setting": "[1]; Group 2 (topical in tissucol)", "value": 20.03, "unit": "g"},
      {"measurement": "Single Pulse: Contraction Time", "setting": "[1]; [3]", "value": 16.37, "unit": "ms"},
      {"measurement": "Single Pulse: Half-Relaxation Time", "setting": "[1]; [3]", "value": 40.93, "unit": "ms"},
      {"measurement": "Single Pulse: Latence", "setting": "[1]; [3]", "value": 7.65, "unit": "ms"},
      {"measurement": "Single Pulse: Muscle Strength Normalized to Muscle Weight", "setting": "[1]; [3]", "value": 0.25, "unit": "g/µg"},
      {"measurement": "Single Pulse: Speed of Contraction", "setting": "[1]; [3]", "value": 2939, "unit": "g/ms"},
      {"measurement": "Single Pulse: Speed of Relaxation", "setting": "[1]; [3]", "value": 593, "unit": "g/ms"},
      {"measurement": "Single Pulse: Strength", "setting": "[1]; [3]", "value": 14.96, "unit": "g"},
      {"measurement": "Single Pulse: Contraction Time", "setting": "[1]; [4]", "value": 27.68, "unit": "ms"},
      {"measurement": "Single Pulse: Half-Relaxation Time", "setting": "[1]; [4]", "value": 60.72, "unit": "ms"},
      {"measurement": "Single Pulse: Latence", "setting": "[1]; [4]", "value": 9.48, "unit": "ms"},
      {"measurement": "Single Pulse: Speed of Contraction", "setting": "[1]; [4]", "value": 2420, "unit": "g/ms"},
      {"measurement": "Single Pulse: Speed of Relaxation", "setting": "[1]; [4]", "value": 635, "unit": "g/ms"},
      {"measurement": "Single Pulse: Strength", "setting": "[1]; [4]", "value": 26.45, "unit": "g"},
      {"measurement": "improvement of muscle strength over control group 1 (column 1, Table 4)", "setting": "[1]; Group 4 (s.c.), p=0.05", "value": 28, "unit": "%"},
      {"measurement": "improvement of speed of muscle contraction compared to group 1 (column 3, Table 4)", "setting": "[1]; group 4 (s.c.), p=0.01", "value": 300, "unit": "%"},
      {"measurement": "speed of relaxation compared to group 1 (column 4, Table 4)", "setting": "[1]; printed as group 5", "value": "dramatically improved"},
      {"measurement": "light microscopic evaluation of semi-thin sections, control vs experimental groups", "setting": "[2]; 0.5 μm sections after severance and end-to-end suture", "value": "did not disclose definite differences"},
      {"measurement": "growth of the myelin sheath in treated animals vs controls", "setting": "[2]; 1 cm distal of the transection, period from the 32nd to the 96th day", "value": "almost twice as fast"},
      {"measurement": "Mean values of axon diameter", "setting": "[2]; [5]", "value": 1.545, "unit": "μm"},
      {"measurement": "Mean values of myelin sheath thickness", "setting": "[2]; [5]", "value": 0.310, "unit": "μm"},
      {"measurement": "Mean values of axon diameter", "setting": "[2]; 1 cm distal to the transection, 96 days p.op., 1 μg/kg per day s.c.", "value": 2.078, "unit": "μm"},
      {"measurement": "Mean values of axon diameter", "setting": "[2]; [6]", "value": 1.888, "unit": "μm"},
      {"measurement": "Mean values of myelin sheath thickness", "setting": "[2]; [6]", "value": 0.398, "unit": "μm"},
      {"measurement": "Mean values of axon diameter", "setting": "[2]; [7]", "value": 2.335, "unit": "μm"},
      {"measurement": "Mean values of myelin sheath thickness", "setting": "[2]; [7]", "value": 0.551, "unit": "μm"},
      {"measurement": "Number of myelinated axons/0.004 sq. mm", "setting": "[2]; [7]", "value": "62 /0.004 sq. mm"},
      {"measurement": "statistically significant effect on the axon diameter", "setting": "[2]; on the 32nd or on the 96th day p.op.", "value": "could not be demonstrated"},
      {"measurement": "% Reduction of Recovery Time", "setting": "crushed sciatic nerve", "value": 28, "unit": "%"}
    ]}
  ]
}
